In patent US3992371A, “Penicillins substituted with heterocyclic and substituted phenyl groups” (Sumitomo Chemical Company, Limited, priority 1973, dated 1976):
≈ marks a conversion by molar mass, not a printed value. Where a name gives a salt, the structure may show the parent alone.

What was measured:
[1] = system: gram-positive and gram-negative bacteria; settings: background statement; cited from earlier work
Pseudomonas = settings: background statement; cited from earlier work
Proteus miravilis GN2425 = assay: Minimal inhibitory concentration, agar dilution method; format: cell-based
Proteus vulgaris HV19 = assay: as above; format: cell-based
[2] = system: Klebsiella pneumoniae PCI602; assay: as above; format: cell-based
Text: (§1) When determined according to the agar dilution method, the penicillins (I) afford the minimal inhibitory concentrations against test microorganisms as shown in Table 2.

[3] = system: Staphylococcus aureus 209P; assay: as above; format: cell-based
Text: as §1

Escherichia coli NIHJ = assay: as above; format: cell-based
Text: as §1

[4] = system: Pseudomonas aeruginosa 104; assay: as above; format: cell-based
Text: as §1

Compound | inhibition of the growth of gram-positive and gram-negative bacteria [1] | antimicrobial activity against Pseudomonas (Pseudomonas) | MIC (Proteus miravilis GN2425) | MIC (Proteus vulgaris HV19) | MIC [2] | MIC [3] | MIC (Escherichia coli NIHJ) | MIC [4]
CC1(C)S[C@@H]2[C@H](NC(=O)[C@H](N)C3=CCC=CC3)C(=O)N2[C@H]1C(=O)O [Epicillin] | inhibit the growth of various gram-positive and gram-negative bacteria | do not exert any appreciable antimicrobial activity against Pseudomonas | – | – | – | – | – | –
6(α-amino-thienylacetamido)penicillanic acid | inhibit the growth of various gram-positive and gram-negative bacteria | do not exert any appreciable antimicrobial activity against Pseudomonas | – | – | – | – | – | –
6-(α-amino-isothiazolylacetamido)penicillanic acid | inhibit the growth of various gram-positive and gram-negative bacteria | do not exert any appreciable antimicrobial activity against Pseudomonas | – | – | – | – | – | –
Cc1cc(C(NC(=O)c2cnc3cccnc3c2O)C(=O)NC2C(=O)N3C2SC(C)(C)C3C(=O)O)ccc1O (stereo not drawn) [Example 60] | – | – | 1.56 µg/mL (≈ 2.83 µM) | 0.05 µg/mL (≈ 0.0906 µM) | 6.25 µg/mL (≈ 11.3 µM) | 0.78 µg/mL (≈ 1.41 µM) | 0.78 µg/mL (≈ 1.41 µM) | 1.56 µg/mL (≈ 2.83 µM)
COc1nc(OC)c2ncc(C(=O)NC(C(=O)NC3C(=O)N4C3SC(C)(C)C4C(=O)O)c3cccc(N)c3)c(O)c2n1 (stereo not drawn) [Example 57] | – | – | 1.56 µg/mL (≈ 2.61 µM) | 0.025 µg/mL (≈ 0.0418 µM) | 6.25 µg/mL (≈ 10.5 µM) | 1.56 µg/mL (≈ 2.61 µM) | 0.78 µg/mL (≈ 1.31 µM) | 1.56 µg/mL (≈ 2.61 µM)
CCn1ncc2c(O)c(C(=O)NC(C(=O)NC3C(=O)N4C3SC(C)(C)C4C(=O)O)c3ccc(N)cc3)cnc21 (stereo not drawn) [Example 59] | – | – | 6.25 µg/mL (≈ 11.3 µM) | 0.1 µg/mL (≈ 0.181 µM) | 12.5 µg/mL (≈ 22.6 µM) | 0.78 µg/mL (≈ 1.41 µM) | 3.13 µg/mL (≈ 5.65 µM) | 1.56 µg/mL (≈ 2.82 µM)
Cc1ccc2ncc(C(=O)NC(C(=O)N[C@@H]3C(=O)N4[C@@H]3SC(C)(C)[C@@H]4C(=O)O)c3ccc(N)cc3)c(O)c2n1 (stereo partly drawn) [Example 21] | – | – | 1.56 µg/mL (≈ 2.83 µM) | 0.025 µg/mL (≈ 0.0454 µM) | 3.13 µg/mL (≈ 5.68 µM) | 1.56 µg/mL (≈ 2.83 µM) | 0.78 µg/mL (≈ 1.42 µM) | 0.78 µg/mL (≈ 1.42 µM)
CC1(C)S[C@@H]2[C@H](NC(=O)[C@H](NC(=O)c3cnc4cccnc4c3O)c3cccc(N)c3)C(=O)N2[C@H]1C(=O)O [Example 1, D-α-(4-hydroxy-1,5-naphthyridine-3-carboxamido)-m-aminobenzylpenicillin sodium salt] | – | – | 0.78 µg/mL | 0.025 µg/mL | 6.25 µg/mL | 1.56 µg/mL | 0.78 µg/mL | 1.56 µg/mL
CC1(C)SC2C(NC(=O)C(NC(=O)c3cnc4nc(N5CCOCC5)ncc4c3O)c3ccc(N)cc3)C(=O)N2C1C(=O)O (stereo not drawn) [Example 54] | – | – | 3.13 µg/mL (≈ 5.03 µM) | 0.05 µg/mL (≈ 0.0803 µM) | 6.25 µg/mL (≈ 10 µM) | 1.56 µg/mL (≈ 2.51 µM) | 3.13 µg/mL (≈ 5.03 µM) | 3.13 µg/mL (≈ 5.03 µM)
Cc1ccc2c(O)c(C(=O)NC(C(=O)N[C@@H]3C(=O)N4[C@@H]3SC(C)(C)[C@@H]4C(=O)O)c3cccc(N)c3)cnc2n1 (stereo partly drawn) [Example 18] | – | – | 1.56 µg/mL (≈ 2.83 µM) | 0.025 µg/mL (≈ 0.0454 µM) | 6.25 µg/mL (≈ 11.4 µM) | 1.56 µg/mL (≈ 2.83 µM) | 1.56 µg/mL (≈ 2.83 µM) | 1.56 µg/mL (≈ 2.83 µM)
CC1(C)SC2C(NC(=O)C(NC(=O)c3nc4ccccc4nc3O)c3cccc(F)c3)C(=O)N2C1C(=O)O (stereo not drawn) [Example 48] | – | – | 12.5 µg/mL (≈ 23.2 µM) | 0.2 µg/mL (≈ 0.371 µM) | 12.5 µg/mL (≈ 23.2 µM) | 0.78 µg/mL (≈ 1.45 µM) | 3.13 µg/mL (≈ 5.8 µM) | 1.56 µg/mL (≈ 2.89 µM)
CNc1ncc2c(O)c(C(=O)NC(C(=O)NC3C(=O)N4C3SC(C)(C)C4C(=O)O)c3cccc(N)c3)cnc2n1 (stereo not drawn) [Example 43] | – | – | 1.56 µg/mL (≈ 2.75 µM) | 0.05 µg/mL (≈ 0.0882 µM) | 12.5 µg/mL (≈ 22.1 µM) | 1.56 µg/mL (≈ 2.75 µM) | 3.13 µg/mL (≈ 5.52 µM) | 3.13 µg/mL (≈ 5.52 µM)
CC1(C)SC2C(NC(=O)C(NC(=O)c3cnc4scnc4c3O)c3cccc(N)c3)C(=O)N2C1C(=O)O (stereo not drawn) [Example 40] | – | – | 1.56 µg/mL (≈ 2.88 µM) | 0.025 µg/mL (≈ 0.0461 µM) | 6.25 µg/mL (≈ 11.5 µM) | 1.56 µg/mL (≈ 2.88 µM) | 1.56 µg/mL (≈ 2.88 µM) | 1.56 µg/mL (≈ 2.88 µM)
CC1(C)S[C@@H]2[C@H](NC(=O)C(NC(=O)c3cnc4cc(Cl)ccc4c3O)c3ccc(N)cc3)C(=O)N2[C@H]1C(=O)O (stereo partly drawn) [Example 17] | – | – | 3.13 µg/mL (≈ 5.49 µM) | 0.2 µg/mL (≈ 0.351 µM) | 6.25 µg/mL (≈ 11 µM) | 0.78 µg/mL (≈ 1.37 µM) | 3.13 µg/mL (≈ 5.49 µM) | 3.13 µg/mL (≈ 5.49 µM)
Cc1nc(O)c2c(O)c(C(=O)NC(C(=O)NC3C(=O)N4C3SC(C)(C)C4C(=O)O)c3cccc(N)c3)cnc2n1 (stereo not drawn) [Example 56] | – | – | 3.13 µg/mL (≈ 5.51 µM) | 0.05 µg/mL (≈ 0.0881 µM) | 6.25 µg/mL (≈ 11 µM) | 1.56 µg/mL (≈ 2.75 µM) | 1.56 µg/mL (≈ 2.75 µM) | 3.13 µg/mL (≈ 5.51 µM)
CC1(C)SC2C(NC(=O)C(NC(=O)c3cnc4cc5c(cc4c3S)OCO5)c3cccc(N)c3)C(=O)N2C1C(=O)O (stereo not drawn) [Example 36] | – | – | 6.25 µg/mL (≈ 10.5 µM) | 0.39 µg/mL (≈ 0.655 µM) | 12.5 µg/mL (≈ 21 µM) | 0.78 µg/mL (≈ 1.31 µM) | 6.25 µg/mL (≈ 10.5 µM) | 3.13 µg/mL (≈ 5.25 µM)
Cc1ccc2ncc(C(=O)NC(C(=O)N[C@@H]3C(=O)N4[C@@H]3SC(C)(C)[C@@H]4C(=O)O)c3cccc(N)c3)c(O)c2n1 (stereo partly drawn) [Example 19] | – | – | 0.78 µg/mL (≈ 1.42 µM) | 0.025 µg/mL (≈ 0.0454 µM) | 6.25 µg/mL (≈ 11.4 µM) | 1.56 µg/mL (≈ 2.83 µM) | 0.78 µg/mL (≈ 1.42 µM) | 0.78 µg/mL (≈ 1.42 µM)
CC1(C)S[C@@H]2[C@H](NC(=O)C(NC(=O)c3cnc4cc(N)ccc4c3O)c3cccc(N)c3)C(=O)N2[C@H]1C(=O)O (stereo partly drawn) [Example 27] | – | – | 3.13 µg/mL (≈ 5.68 µM) | 0.39 µg/mL (≈ 0.708 µM) | 12.5 µg/mL (≈ 22.7 µM) | 0.78 µg/mL (≈ 1.42 µM) | 3.13 µg/mL (≈ 5.68 µM) | 3.13 µg/mL (≈ 5.68 µM)
CC1(C)S[C@@H]2[C@H](NC(=O)C(NC(=O)c3nc4ccccc4nc3O)c3cccc(N)c3)C(=O)N2[C@H]1C(=O)O (stereo partly drawn) [Example 14] | – | – | 12.5 µg/mL (≈ 23.3 µM) | 0.78 µg/mL (≈ 1.45 µM) | 12.5 µg/mL (≈ 23.3 µM) | 0.78 µg/mL (≈ 1.45 µM) | 3.13 µg/mL (≈ 5.83 µM) | 0.78 µg/mL (≈ 1.45 µM)
COc1ccc([C@@H](NC(=O)c2cnc3cccnc3c2O)C(=O)N[C@@H]2C(=O)N3[C@@H]2SC(C)(C)[C@@H]3C(=O)O)cc1 [Example 4, D-α-(4-hydroxy-1,5-naphthyridine-3-carboxamido)-p-methoxybenzylpenicillin sodium salt] | – | – | 12.5 µg/mL | 0.1 µg/mL | 12.5 µg/mL | 1.56 µg/mL | 3.13 µg/mL | 3.13 µg/mL
CC1(C)SC2C(NC(=O)C(NC(=O)c3cnc4ccc(N5CCCC5)nc4c3O)c3ccc(N)cc3)C(=O)N2C1C(=O)O (stereo not drawn) [Example 52] | – | – | 1.56 µg/mL (≈ 2.58 µM) | 0.05 µg/mL (≈ 0.0826 µM) | 6.25 µg/mL (≈ 10.3 µM) | 1.56 µg/mL (≈ 2.58 µM) | 0.78 µg/mL (≈ 1.29 µM) | 1.56 µg/mL (≈ 2.58 µM)
CC1(C)SC2C(NC(=O)C(NC(=O)c3cnc4cncnc4c3O)c3cccc(N)c3)C(=O)N2C1C(=O)O (stereo not drawn) [Example 33] | – | – | 0.78 µg/mL (≈ 1.45 µM) | 0.025 µg/mL (≈ 0.0465 µM) | 6.25 µg/mL (≈ 11.6 µM) | 1.56 µg/mL (≈ 2.9 µM) | 0.78 µg/mL (≈ 1.45 µM) | 0.78 µg/mL (≈ 1.45 µM)
CC1(C)S[C@@H]2[C@H](NC(=O)C(NC(=O)c3cnc4cc([N+](=O)[O-])ccc4c3O)c3cccc(N)c3)C(=O)N2[C@H]1C(=O)O (stereo partly drawn) [Example 25] | – | – | 3.13 µg/mL (≈ 5.39 µM) | 0.2 µg/mL (≈ 0.344 µM) | 12.5 µg/mL (≈ 21.5 µM) | 0.78 µg/mL (≈ 1.34 µM) | 3.13 µg/mL (≈ 5.39 µM) | 3.13 µg/mL (≈ 5.39 µM)
CC1(C)S[C@@H]2[C@H](NC(=O)[C@H](NC(=O)c3nnc4ccccc4c3O)c3cccc(N)c3)C(=O)N2[C@H]1C(=O)O [Example 6, D-α-(4-hydroxycinnoline-3-carboxamido)-m-aminobenzylpenicillin] | – | – | 12.5 µg/mL (≈ 23.3 µM) | 0.78 µg/mL (≈ 1.45 µM) | 12.5 µg/mL (≈ 23.3 µM) | 1.56 µg/mL (≈ 2.91 µM) | 6.25 µg/mL (≈ 11.6 µM) | 6.25 µg/mL (≈ 11.6 µM)
CC1(C)S[C@@H]2[C@H](NC(=O)C(NC(=O)c3cnc4ccccc4c3O)c3cccc(N)c3)C(=O)N2[C@H]1C(=O)O (stereo partly drawn) [Example 15] | – | – | 3.13 µg/mL (≈ 5.84 µM) | 0.2 µg/mL (≈ 0.373 µM) | 6.25 µg/mL (≈ 11.7 µM) | 0.78 µg/mL (≈ 1.46 µM) | 3.13 µg/mL (≈ 5.84 µM) | 3.13 µg/mL (≈ 5.84 µM)
CC1(C)SC2C(NC(=O)C(NC(=O)c3cnc4cccnc4c3S)c3cccc(N)c3)C(=O)N2C1C(=O)O (stereo not drawn) [Example 37] | – | – | 1.56 µg/mL (≈ 2.82 µM) | 0.05 µg/mL (≈ 0.0905 µM) | 12.5 µg/mL (≈ 22.6 µM) | 1.56 µg/mL (≈ 2.82 µM) | 1.56 µg/mL (≈ 2.82 µM) | 0.78 µg/mL (≈ 1.41 µM)
